Results published in patent US7115620B2, “1,3-disubstituted-2-thioxo-imidazolidine-4,5-diones as potassium channel openers” (Wyeth, priority 2001, dated 2006).

Experiments:
[1] = system: isolated rat bladder strips; assay: Inhibition of contractions in isolated rat bladder strips; details: 15 mM KCl-enhanced contractile activity; for IC50: 0.5 h, 30 minute challenge; for inhibition at 30 µM: read-out: % Inhibition @ 30 μM (maximum percentage inhibition of contractile activity)
Description: Sprague-Dawley rats (150–200 g) were rendered unconscious by CO2 asphyxiation and then euthanized by cervical dislocation. The bladder was removed into warm (37 deg.C.) physiological salt solution (PSS) of the following composition (mM): NaCl, 118.4; KCl, 4.7; CaCl2, 2.5; […]; NaHCO3, 24.9; KH2PO4, 1.2; glucose, 11.1; EDTA, 0.023; gassed with 95% O2; […]; pH 7.4. The bladder was opened and then cut into strips 1–2 mm in width and 7–10 mm in length. The strips are subsequently suspended in a 10 mL tissue bath under an initial resting tension of 1.5 g. The strips were held in place by two surgical clips one of which is attached to a fixed hook while the other is attached to an isometric force transducer. […] The carbachol was then washed out and the tissue allowed to relax to its resting level of activity. Following a further 30 minute period of recovery an additional 15 mM KCl were introduced into the tissue bath. […] Following stabilization of this enhanced level of contractile activity, incremental increases in the concentration of test compound or vehicle were introduced into the tissue bath. Contractile activity was measured for each compound or vehicle concentration during the last minute of a 30 minute challenge.
The isometric force developed by the bladder strips was measured using a […] to elicit 50% inhibition of pre-drug contractile activity (IC50 concentration) and was calculated from this concentration-response curve.

IC50 [1]	melting point	SMILES	inhibition at 30 µM [1]
3.3 ± 0.08 µM	219.6 to 219.9 °C	CC(N1C(=O)C(=O)N(c2ccc(C#N)cc2)C1=S)C(C)(C)C (racemic) [Example 1, 4-[4,5-Dioxo-2-thioxo-3-(1,2,2-trimethyl-propyl)-imidazolidin-1-yl]-benzonitrile]	–
3.4 ± 0.8 µM	128 to 129 °C	CC(C)(C)CN1C(=O)C(=O)N(c2ccc(C#N)cc2)C1=S [Example 2, 4-[3-(2,2-Dimethyl-propyl)-4,5-dioxo-2-thioxo-imidazolidin-1-yl]-benzonitrile]	–
25.7 ± 3.7 µM	173.1 to 174.3 °C	CCC(C)(C)N1C(=O)C(=O)N(c2ccc(C#N)cc2)C1=S [Example 3, 4-[3-(1,1-Dimethyl-propyl)-4,5-dioxo-2-thioxo-imidazolidin-1-yl]-benzonitrile]	–
30 ± 5 µM	200.4 to 201.3 °C	CC(C)(C)N1C(=O)C(=O)N(c2ccc(C#N)cc2)C1=S [Example 4, 4-(3-tert-Butyl-4,5-dioxo-2-thioxo-imidazolidin-1-yl)-benzonitrile]	–
28.9 ± 2.6 µM	172.8 to 173.3 °C	CCc1cc(C#N)ccc1N1C(=O)C(=O)N(C(C)(C)CC)C1=S [Example 5, 4-[3-(1,1-Dimethyl-propyl)-4,5-dioxo-2-thioxo-imidazolidin-1-yl]-3-ethyl-benzonitrile]	–
4.2 ± 1.4 µM	197.6 to 197.8 °C	C[C@@H](N1C(=O)C(=O)N(c2ccc(C#N)cc2)C1=S)C(C)(C)C [Example 6, 4-[4,5-Dioxo-2-thioxo-3-((1R)-1,2,2-trimethyl-propyl)-imidazolidin-1-yl]-benzonitrile]	–
–	168.1 to 168.7 °C	CC(N1C(=O)C(=O)N(c2cccc(C#N)c2)C1=S)C(C)(C)C (stereo not shown) [Example 7, 3-[4,5-Dioxo-2-thioxo-3-(1,2,2-trimethyl-propyl)-imidazolidin-1-yl]-benzonitrile]	29.2%
27.2 µM	207.1 to 207.9 °C	CC(N1C(=O)C(=O)N(c2ccc(Br)cc2)C1=S)C(C)(C)C (stereo not shown) [Example 8, 1-(4-Bromo-phenyl)-2-thioxo-3-(1,2,2-trimethyl-propyl)-imidazolidine-4,5-dione]	22.4%
–	244 to 246 °C	CN(C)c1ccc(N2C(=O)C(=O)N(CC(C)(C)C)C2=S)cc1.Cl [Example 9, 1-(4-Dimethylamino-phenyl)-3-(2,2-dimethyl-propyl)-2-thioxo-imidazolidine-4,5-dione Hydrochloride]	33.2%
–	155.2 to 156 °C	CC(N1C(=O)C(=O)N(c2ccc(F)cc2F)C1=S)C(C)(C)C (stereo not shown) [Example 10, 1-(2,4-Difluoro-phenyl)-2-thioxo-3-(1,2,2-trimethyl-propyl)-imidazolidine-4,5-dione]	23.1%
–	156.2 to 156.9 °C	CC(C)(C)CN1C(=O)C(=O)N(c2ccc(F)cc2F)C1=S [Example 11, 1-(2,4-Difluoro-phenyl)-3-(2,2-dimethyl-propyl)-2-thioxo-imidazolidine-4,5-dione]	30.6%
–	198.8 to 199.5 °C	CC(N1C(=O)C(=O)N(c2ccc(Cl)cc2)C1=S)C(C)(C)C (stereo not shown) [Example 12, 1-(4-Chloro-phenyl)-2-thioxo-3-(1,2,2-trimethyl-propyl)-imidazolidine-4,5-dione]	24.3%
–	208.9 to 209.5 °C	CC(N1C(=O)C(=O)N(c2ccc(C(C)(C)C)cc2)C1=S)C(C)(C)C (stereo not shown) [Example 13, 1-(4-tert-Butyl-phenyl)-2-thioxo-3-(1,2,2-trimethyl-propyl)-imidazolidine-4,5-dione]	18.3%
–	165.2 to 166.3 °C	CC(C)(C)CN1C(=O)C(=O)N(c2ccc(F)cc2)C1=S [Example 14, 1-(2,2-Dimethyl-propyl)-3-(4-fluoro-phenyl)-2-thioxo-imidazolidine-4,5-dione]	15%
3.6 ± 0.8 µM	111.4 to 112.8 °C	CC(C)(C)CN1C(=O)C(=O)N(c2cccnc2)C1=S [Example 15, 1-(2,2-Dimethyl-propyl)-3-pyridin-3-yl-2-thioxo-imidazolidine-4,5-dione]	–
